Data reported in US20120122860A1, “SOLID FORMS OF SULFONAMIDES AND AMINO ACIDS” (Plexxikon, Inc., priority 2009, published 2012).

Key:
C-Raf = C-Raf (Homo sapiens, UniProt P04049); assay: Kinase activity assay, C-Raf
A-Raf = molecular target: T1, A-Raf (Homo sapiens, UniProt P10398); assay: Kinase activity assay, A-Raf
T1 sequence (P10398 1-606): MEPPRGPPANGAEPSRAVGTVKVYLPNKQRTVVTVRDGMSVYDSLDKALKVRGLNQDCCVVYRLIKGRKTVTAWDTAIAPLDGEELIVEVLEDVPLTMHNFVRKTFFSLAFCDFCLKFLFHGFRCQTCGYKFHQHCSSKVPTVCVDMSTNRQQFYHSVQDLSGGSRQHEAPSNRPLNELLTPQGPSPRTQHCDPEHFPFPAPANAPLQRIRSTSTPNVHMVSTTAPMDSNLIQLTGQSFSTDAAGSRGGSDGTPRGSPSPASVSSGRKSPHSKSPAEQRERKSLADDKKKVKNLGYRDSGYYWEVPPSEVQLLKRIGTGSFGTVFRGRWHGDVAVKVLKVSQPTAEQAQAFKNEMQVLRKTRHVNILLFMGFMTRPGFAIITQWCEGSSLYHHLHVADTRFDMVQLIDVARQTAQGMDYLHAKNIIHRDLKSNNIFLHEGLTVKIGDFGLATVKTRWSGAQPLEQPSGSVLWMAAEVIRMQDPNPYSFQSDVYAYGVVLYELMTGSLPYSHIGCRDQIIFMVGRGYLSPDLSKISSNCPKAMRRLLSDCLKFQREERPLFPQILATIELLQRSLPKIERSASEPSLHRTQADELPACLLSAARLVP

TEC = molecular target: T2, TEC (Homo sapiens, UniProt P42680); assay: Kinase activity assay, TEC
T2 sequence (P42680 1-631): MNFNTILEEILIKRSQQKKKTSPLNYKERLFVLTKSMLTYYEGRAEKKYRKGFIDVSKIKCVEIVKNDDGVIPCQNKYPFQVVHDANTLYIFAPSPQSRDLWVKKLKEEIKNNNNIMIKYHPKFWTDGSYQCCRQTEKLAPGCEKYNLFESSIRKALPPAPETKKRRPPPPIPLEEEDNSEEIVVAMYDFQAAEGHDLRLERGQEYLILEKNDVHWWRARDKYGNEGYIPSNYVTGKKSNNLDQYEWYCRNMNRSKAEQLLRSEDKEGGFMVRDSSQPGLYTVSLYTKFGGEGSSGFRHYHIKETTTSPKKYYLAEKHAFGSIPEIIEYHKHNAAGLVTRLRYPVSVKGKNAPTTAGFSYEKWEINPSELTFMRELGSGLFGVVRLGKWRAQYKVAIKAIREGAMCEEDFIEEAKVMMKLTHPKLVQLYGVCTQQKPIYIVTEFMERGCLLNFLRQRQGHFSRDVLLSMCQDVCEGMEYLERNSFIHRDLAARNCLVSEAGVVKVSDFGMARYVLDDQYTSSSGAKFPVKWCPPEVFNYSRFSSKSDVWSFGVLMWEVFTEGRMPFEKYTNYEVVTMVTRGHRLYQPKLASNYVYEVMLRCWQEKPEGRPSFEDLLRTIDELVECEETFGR

B-Raf = B-Raf (Homo sapiens, UniProt P15056); assay: Kinase activity assay, B-Raf; assay type: biochemical; conditions: read-out: activity toward kinase B-Raf, IC50
B-Raf, sequence (P15056 whole entry): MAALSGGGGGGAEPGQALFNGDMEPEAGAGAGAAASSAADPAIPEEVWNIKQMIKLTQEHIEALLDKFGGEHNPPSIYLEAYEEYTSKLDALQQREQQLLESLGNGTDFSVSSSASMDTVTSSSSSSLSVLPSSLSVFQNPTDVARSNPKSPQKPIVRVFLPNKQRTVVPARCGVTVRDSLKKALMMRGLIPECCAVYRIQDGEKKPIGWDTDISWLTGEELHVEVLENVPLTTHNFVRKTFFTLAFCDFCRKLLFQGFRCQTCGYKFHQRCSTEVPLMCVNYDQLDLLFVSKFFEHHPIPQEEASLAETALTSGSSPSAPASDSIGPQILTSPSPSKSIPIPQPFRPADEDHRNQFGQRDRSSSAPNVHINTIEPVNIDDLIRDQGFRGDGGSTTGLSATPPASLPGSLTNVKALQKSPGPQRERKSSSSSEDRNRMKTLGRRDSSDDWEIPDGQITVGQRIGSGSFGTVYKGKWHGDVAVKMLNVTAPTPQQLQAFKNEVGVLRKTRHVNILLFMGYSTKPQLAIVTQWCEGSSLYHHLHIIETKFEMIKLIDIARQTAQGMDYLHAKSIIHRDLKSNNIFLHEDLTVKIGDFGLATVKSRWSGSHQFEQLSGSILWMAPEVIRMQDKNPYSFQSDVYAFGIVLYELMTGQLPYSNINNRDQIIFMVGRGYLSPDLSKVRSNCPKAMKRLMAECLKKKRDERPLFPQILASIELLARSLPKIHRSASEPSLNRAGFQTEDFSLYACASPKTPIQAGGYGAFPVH

Kit = Kit (Homo sapiens, UniProt P10721); assay: Kinase activity assay, Kit
Kit, sequence (P10721 26-976): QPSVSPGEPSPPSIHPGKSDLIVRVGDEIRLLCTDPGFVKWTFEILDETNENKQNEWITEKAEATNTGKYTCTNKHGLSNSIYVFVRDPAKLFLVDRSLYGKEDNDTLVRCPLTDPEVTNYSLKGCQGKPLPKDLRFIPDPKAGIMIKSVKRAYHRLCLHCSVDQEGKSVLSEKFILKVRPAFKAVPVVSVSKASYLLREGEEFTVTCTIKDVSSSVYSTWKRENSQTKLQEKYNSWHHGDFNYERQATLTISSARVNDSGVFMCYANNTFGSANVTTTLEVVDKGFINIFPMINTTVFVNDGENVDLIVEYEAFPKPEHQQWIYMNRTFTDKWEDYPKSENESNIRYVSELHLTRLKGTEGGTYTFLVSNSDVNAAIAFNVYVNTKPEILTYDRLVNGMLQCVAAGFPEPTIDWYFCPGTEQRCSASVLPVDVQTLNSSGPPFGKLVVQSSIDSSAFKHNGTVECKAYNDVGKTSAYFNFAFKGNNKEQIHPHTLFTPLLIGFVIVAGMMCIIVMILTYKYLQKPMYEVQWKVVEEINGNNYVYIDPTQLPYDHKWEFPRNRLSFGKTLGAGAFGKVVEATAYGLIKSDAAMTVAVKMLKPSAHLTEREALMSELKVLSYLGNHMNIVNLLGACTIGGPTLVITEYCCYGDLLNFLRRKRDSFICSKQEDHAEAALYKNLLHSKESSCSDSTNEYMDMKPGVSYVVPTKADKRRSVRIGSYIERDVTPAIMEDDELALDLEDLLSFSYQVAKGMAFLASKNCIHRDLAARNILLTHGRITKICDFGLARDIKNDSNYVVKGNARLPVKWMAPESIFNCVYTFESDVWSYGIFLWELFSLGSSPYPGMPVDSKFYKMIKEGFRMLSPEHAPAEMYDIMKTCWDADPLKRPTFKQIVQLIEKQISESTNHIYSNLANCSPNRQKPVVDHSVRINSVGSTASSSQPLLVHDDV

B-Raf V600E = B-Raf V600E (Homo sapiens, UniProt P15056, V600E); assay: Kinase activity assay, B-Raf V600E; assay type: biochemical; conditions: read-out: activity toward kinase B-Raf V600E, IC50
B-Raf V600E, sequence (P15056 whole entry V600E): as the sequence (P15056 whole entry) above, with V600E counted along it

Src = Src (Homo sapiens, UniProt P12931); assay: Kinase activity assay, Src
Src, sequence (P12931 whole entry): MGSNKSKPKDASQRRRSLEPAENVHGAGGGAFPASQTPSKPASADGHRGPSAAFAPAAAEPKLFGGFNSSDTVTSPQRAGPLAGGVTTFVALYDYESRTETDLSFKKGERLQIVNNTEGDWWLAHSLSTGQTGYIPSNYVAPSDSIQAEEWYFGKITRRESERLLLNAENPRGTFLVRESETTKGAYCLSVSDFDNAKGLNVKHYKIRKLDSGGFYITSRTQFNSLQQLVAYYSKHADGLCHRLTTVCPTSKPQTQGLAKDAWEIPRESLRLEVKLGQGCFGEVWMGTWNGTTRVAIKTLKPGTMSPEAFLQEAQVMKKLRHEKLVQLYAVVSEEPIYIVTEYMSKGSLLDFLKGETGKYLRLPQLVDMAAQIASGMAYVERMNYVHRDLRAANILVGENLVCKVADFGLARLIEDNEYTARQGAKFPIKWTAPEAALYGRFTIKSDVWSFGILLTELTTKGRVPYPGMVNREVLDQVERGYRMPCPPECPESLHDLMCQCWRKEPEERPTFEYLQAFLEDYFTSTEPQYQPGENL

Kdr = Kdr (Homo sapiens, UniProt P35968); assay: Kinase activity assay, Kdr
Kdr, sequence (P35968 20-1356): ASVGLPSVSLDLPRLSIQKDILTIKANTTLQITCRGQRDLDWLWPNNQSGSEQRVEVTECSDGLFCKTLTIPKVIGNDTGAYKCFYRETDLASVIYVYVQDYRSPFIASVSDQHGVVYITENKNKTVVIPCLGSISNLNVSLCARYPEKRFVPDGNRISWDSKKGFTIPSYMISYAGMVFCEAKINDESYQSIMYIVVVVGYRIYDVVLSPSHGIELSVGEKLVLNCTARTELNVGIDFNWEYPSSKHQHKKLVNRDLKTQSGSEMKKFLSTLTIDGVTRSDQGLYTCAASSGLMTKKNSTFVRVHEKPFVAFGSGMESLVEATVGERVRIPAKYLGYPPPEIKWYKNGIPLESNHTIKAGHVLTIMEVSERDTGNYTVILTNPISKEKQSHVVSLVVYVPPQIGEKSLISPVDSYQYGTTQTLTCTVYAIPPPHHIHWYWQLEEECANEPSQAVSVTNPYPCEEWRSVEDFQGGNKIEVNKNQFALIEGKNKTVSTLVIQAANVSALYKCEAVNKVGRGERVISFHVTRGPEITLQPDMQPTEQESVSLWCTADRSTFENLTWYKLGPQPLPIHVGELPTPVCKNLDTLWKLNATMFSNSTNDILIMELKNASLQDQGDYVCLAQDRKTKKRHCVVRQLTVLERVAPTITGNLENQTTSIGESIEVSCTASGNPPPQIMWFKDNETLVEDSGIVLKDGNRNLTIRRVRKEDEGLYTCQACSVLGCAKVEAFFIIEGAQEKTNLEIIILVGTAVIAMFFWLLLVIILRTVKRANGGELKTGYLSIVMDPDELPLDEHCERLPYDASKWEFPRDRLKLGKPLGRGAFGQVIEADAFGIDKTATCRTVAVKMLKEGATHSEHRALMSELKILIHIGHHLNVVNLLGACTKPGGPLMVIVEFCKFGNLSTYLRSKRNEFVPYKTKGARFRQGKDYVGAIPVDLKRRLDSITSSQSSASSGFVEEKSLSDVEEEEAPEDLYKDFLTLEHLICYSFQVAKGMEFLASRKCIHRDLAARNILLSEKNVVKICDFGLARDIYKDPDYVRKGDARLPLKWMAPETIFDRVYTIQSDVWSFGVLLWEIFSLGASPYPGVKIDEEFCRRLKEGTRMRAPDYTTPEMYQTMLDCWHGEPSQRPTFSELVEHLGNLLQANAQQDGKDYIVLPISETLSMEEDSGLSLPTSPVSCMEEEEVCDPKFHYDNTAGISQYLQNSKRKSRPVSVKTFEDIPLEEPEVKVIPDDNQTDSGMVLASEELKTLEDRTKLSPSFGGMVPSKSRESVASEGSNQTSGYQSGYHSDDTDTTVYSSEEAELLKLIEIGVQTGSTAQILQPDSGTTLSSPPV

MAP4K4 = MAP4K4 (Homo sapiens, UniProt O95819); assay: Kinase activity assay, MAP4K4
Fms = Fms (Homo sapiens, UniProt P07333); assay: Kinase activity assay, Fms

Measured: IC50

C-Raf, sequence (P04049 whole entry): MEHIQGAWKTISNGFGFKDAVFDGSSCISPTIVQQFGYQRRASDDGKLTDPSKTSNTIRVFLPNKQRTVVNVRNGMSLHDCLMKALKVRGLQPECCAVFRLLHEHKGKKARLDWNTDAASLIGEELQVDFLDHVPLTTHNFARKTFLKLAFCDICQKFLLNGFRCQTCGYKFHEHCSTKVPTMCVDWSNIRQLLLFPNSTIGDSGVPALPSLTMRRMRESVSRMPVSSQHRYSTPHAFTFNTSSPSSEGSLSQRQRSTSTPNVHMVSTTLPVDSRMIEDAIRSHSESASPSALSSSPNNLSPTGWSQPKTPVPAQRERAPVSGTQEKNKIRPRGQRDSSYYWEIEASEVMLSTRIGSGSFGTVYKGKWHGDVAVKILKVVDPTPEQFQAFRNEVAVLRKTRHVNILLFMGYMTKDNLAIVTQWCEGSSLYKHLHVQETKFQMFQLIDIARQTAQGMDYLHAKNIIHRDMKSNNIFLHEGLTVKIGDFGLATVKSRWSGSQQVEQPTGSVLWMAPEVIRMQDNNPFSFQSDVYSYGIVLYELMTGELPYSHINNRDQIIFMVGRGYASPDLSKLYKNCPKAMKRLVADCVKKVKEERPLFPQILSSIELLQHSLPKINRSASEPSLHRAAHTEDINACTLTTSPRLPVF

N#Cc1ccnc2[nH]cc(C(=O)c3c(F)ccc(NS(=O)(=O)c4ccccc4F)c3F)c12 [P-2020, N-[3-(4-Cyano-1H-pyrrolo[2,3-b]pyridine-3-carbonyl)-2,4-difluoro-phenyl]-2-fluoro-benzenesulfonamide]
not listed: MAP4K4 | Fms
≤ 10 µM: all other assays above

N#Cc1cnc2[nH]cc(C(=O)c3c(F)ccc(NS(=O)(=O)c4ccccc4)c3F)c2c1 [P-2046, N-[3-(5-Cyano-1H-pyrrolo[2,3-b]pyridine-3-carbonyl)-2,4-difluoro-phenyl]-benzenesulfonamide]
not listed: Kdr | MAP4K4 | Fms
≤ 10 µM: all other assays above

COc1ccnc2[nH]cc(C(=O)c3c(F)ccc(NS(=O)(=O)c4ccc(C(F)(F)F)cc4)c3F)c12 [P-2047, N-[2,4-Difluoro-3-(4-methoxy-1H-pyrrolo[2,3-b]pyridine-3-carbonyl)-phenyl]-4-trifluoromethyl-benzenesulfonamide]
not listed: Kdr | MAP4K4 | Fms
≤ 10 µM: all other assays above

O=C(c1c(F)ccc(NS(=O)(=O)c2ccccn2)c1F)c1c[nH]c2ncc(Cl)cc12 [P-2067, Pyridine-2-sulfonic acid [3-(5-chloro-1H-pyrrolo[2,3-b]pyridine-3-carbonyl)-2,4-difluoro-phenyl]-amide]
not listed: Kit | Fms
≤ 10 µM: all other assays above

CCCS(=O)(=O)Nc1ccc(F)c(C(=O)c2c[nH]c3ncc(CCCN4CCOCC4)cc23)c1F [P-2247, Propane-1-sulfonic acid {2,4-difluoro-3-[5-(3-morpholin-4-yl-propyl)-1H-pyrrolo[2,3-b]pyridine-3-carbonyl]-phenyl}-amide]
not listed: Kit | Src | Fms
≤ 10 µM: all other assays above

CCCS(=O)(=O)Nc1ccc(F)c(C(=O)c2c[nH]c3ncc(CCCN4CCCC4)cc23)c1F [P-2248, Propane-1-sulfonic acid {2,4-difluoro-3-[5-(3-pyrrolidin-1-yl-propyl)-1H-pyrrolo[2,3-b]pyridine-3-carbonyl]-phenyl}-amide]
≤ 10 µM: C-Raf | A-Raf | TEC | B-Raf | B-Raf V600E | Kdr

CCCS(=O)(=O)Nc1ccc(F)c(C(=O)c2c[nH]c3ncc(CO)cc23)c1F [P-2250, Propane-1-sulfonic acid [2,4-difluoro-3-(5-hydroxymethyl-1H-pyrrolo[2,3-b]pyridine-3-carbonyl)-phenyl]-amide]
≤ 10 µM: C-Raf | A-Raf | TEC | B-Raf | B-Raf V600E | Kdr

CCCS(=O)(=O)Nc1ccc(F)c(C(=O)c2c[nH]c3ncc(CN4CCN(C)CC4)cc23)c1F [P-2257, Propane-1-sulfonic acid {2,4-difluoro-3-[5-(4-methyl-piperazin-1-ylmethyl)-1H-pyrrolo[2,3-b]pyridine-3-carbonyl]-phenyl}-amide]
≤ 10 µM: C-Raf | A-Raf | TEC | B-Raf | B-Raf V600E

C#Cc1ccnc2[nH]cc(C(=O)c3c(F)ccc(NS(=O)(=O)CCC)c3F)c12 [P-2261, Propane-1-sulfonic acid [3-(4-ethynyl-1H-pyrrolo[2,3-b]pyridine-3-carbonyl)-2,4-difluoro-phenyl]-amide]
not listed: Kit | MAP4K4 | Fms
≤ 10 µM: all other assays above

Cc1cnc2[nH]cc(C(=O)c3c(F)ccc(NS(=O)(=O)C(C)C)c3F)c2c1 [P-2278, Propane-2-sulfonic acid [2,4-difluoro-3-(5-methyl-1H-pyrrolo[2,3-b]pyridine-3-carbonyl)-phenyl]-amide]
not listed: Kit | Src | Fms
≤ 10 µM: all other assays above

CS(=O)(=O)Nc1ccc(F)c(C(=O)c2c[nH]c3nccc(C#N)c23)c1F [P-2292, N-[3-(4-Cyano-1H-pyrrolo[2,3-b]pyridine-3-carbonyl)-2,4-difluoro-phenyl]-methanesulfonamide]
≤ 10 µM: C-Raf | A-Raf | TEC | B-Raf V600E | Kdr

N#Cc1cnc2[nH]cc(C(=O)c3c(F)ccc(NS(=O)(=O)C4CCC4)c3F)c2c1 [P-2353, Cyclobutanesulfonic acid [3-(5-cyano-1H-pyrrolo[2,3-b]pyridine-3-carbonyl)-2,4-difluoro-phenyl]-amide]
not listed: Src | Fms
≤ 10 µM: all other assays above

CS(=O)(=O)c1cccc(-c2cnc3[nH]cc(C(=O)c4cc(NS(=O)(=O)C5CCCC5)ccc4F)c3c2)c1 [P-2445, Cyclopentanesulfonic acid {4-fluoro-3-[5-(3-methanesulfonyl-phenyl)-1H-pyrrolo[2,3-b]pyridine-3-carbonyl]-phenyl}-amide]
not listed: A-Raf
≤ 10 µM: all other assays above
